Data reported in ChEMBL document CHEMBL4482302, “Inhibitors of rac1 and uses thereof for inducing bronchodilatation” (2018).
Calls of active or inactive are those of the source. The rule behind the calls is not given here.

Key:
[1] = target: Ras-related C3 botulinum toxin substrate 1 (Mus musculus, UniProt P63001); assay: Inhibition of Rac1 activation in mouse NIH/3T3 cells lysates pre-incubated for 1 hr before addition of Rac activator stimulation by immunoblot analysis based pull-down assay relative to control; assay type: subcellular, Lysate
[2] = target: ADP-ribosylation factor 6 (Mus musculus) (UniProt P62331); assay: Inhibition of mouse Arf6 assessed as decrease in B-max for GTP-binding on Rac1 by mant-GTP binding kinetics real-time assay
Chain of ADP-ribosylation factor 6 (Mus musculus) (P62331 whole entry): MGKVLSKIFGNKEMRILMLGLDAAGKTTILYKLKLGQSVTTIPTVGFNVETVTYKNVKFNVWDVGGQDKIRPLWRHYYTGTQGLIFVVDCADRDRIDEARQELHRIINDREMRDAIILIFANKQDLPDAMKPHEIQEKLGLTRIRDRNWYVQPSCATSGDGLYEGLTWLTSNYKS

[3] = target: Rho-related GTP-binding protein RhoG (Mus musculus) (UniProt P84096); assay: Inhibition of mouse RhoG assessed as decrease in B-max for GTP-binding on Rac1 by mant-GTP binding kinetics real-time assay
Chain of Rho-related GTP-binding protein RhoG (Mus musculus) (P84096 whole entry): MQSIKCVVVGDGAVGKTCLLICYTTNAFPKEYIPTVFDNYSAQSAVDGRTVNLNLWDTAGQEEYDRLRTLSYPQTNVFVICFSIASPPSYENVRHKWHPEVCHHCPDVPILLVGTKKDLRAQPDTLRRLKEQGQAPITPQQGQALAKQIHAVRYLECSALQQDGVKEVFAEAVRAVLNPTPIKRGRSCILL

[4] = target: Ras-related C3 botulinum toxin substrate 1 (Mus musculus) (UniProt P63001); assay: Binding affinity to mouse Rac1 by SPR assay
[5] = target: Ras-related C3 botulinum toxin substrate 1 (Mus musculus) (UniProt P63001); assay: Inhibition of Rac1 activation in mouse NIH/3T3 cells lysates pre-incubated for 1 hr before addition of Rac activator stimulation by immunoblot analysis based pull-down assay; assay type: subcellular; conditions: Lysate
[6] = target: Ras-related C3 botulinum toxin substrate 1 (Mus musculus) (UniProt P63001); assay: Inhibition of Rac1 in mouse NIH/3T3 cells assessed as reduction in Rac activator-stimulated membrane ruffling; assay type: cell-based
Mus musculus = assay: Suppression of airway hyperresponsiveness in mouse model of percutaneous sensitization and house dust mite extract intranasal challenge-induced human allergic asthma dosed via nebulization 10 mins before methacholine challenge; assay type: functional, organism-based
[7] = target: Transforming protein RhoA (Mus musculus) (UniProt Q9QUI0); assay: Inhibition of mouse RhoA assessed as decrease in B-max for GTP-binding on Rac1 by mant-GTP binding kinetics real-time assay
Chain of Transforming protein RhoA (Mus musculus) (Q9QUI0 whole entry): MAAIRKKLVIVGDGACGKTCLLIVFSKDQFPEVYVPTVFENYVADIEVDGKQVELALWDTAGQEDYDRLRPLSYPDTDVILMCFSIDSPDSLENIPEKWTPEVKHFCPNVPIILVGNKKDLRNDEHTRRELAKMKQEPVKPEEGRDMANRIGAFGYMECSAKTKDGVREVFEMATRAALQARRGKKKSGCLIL

[8] = target: Ras-related C3 botulinum toxin substrate 1 (Mus musculus) (UniProt P63001); assay: Inhibition of mouse Rac1 assessed as decrease in B-max for GTP-binding on Rac1 by mant-GTP binding kinetics real-time assay
[9] = target: Ras-related C3 botulinum toxin substrate 1 (Mus musculus) (UniProt P63001); assay: Binding affinity to mouse Rac1 in presence of EDTA by SPR assay
[10] = target: Ras-related C3 botulinum toxin substrate 1 (Mus musculus) (UniProt P63001); assay: Inhibition of Rac1 in mouse NIH/3T3 cells assessed as reduction in Rac activator-stimulated cell adhesion measured every 5 mins for 6 hrs by xCELLigence assay; assay type: cell-based
[11] = target: Ras-related protein Rab-35 (Mus musculus) (UniProt Q6PHN9); assay: Inhibition of mouse Rab35 assessed as decrease in B-max for GTP-binding on Rac1 by mant-GTP binding kinetics real-time assay
Chain of Ras-related protein Rab-35 (Mus musculus) (Q6PHN9 whole entry): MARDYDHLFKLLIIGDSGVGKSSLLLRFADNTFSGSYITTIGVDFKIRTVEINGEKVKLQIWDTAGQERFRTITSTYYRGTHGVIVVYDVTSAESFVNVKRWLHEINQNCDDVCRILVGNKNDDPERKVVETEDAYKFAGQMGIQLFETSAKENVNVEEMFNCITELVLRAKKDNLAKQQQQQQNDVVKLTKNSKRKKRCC

[12] = target: Ras-related C3 botulinum toxin substrate 2 (Mus musculus) (UniProt Q05144); assay: Inhibition of mouse Rac2 assessed as decrease in B-max for GTP-binding on Rac1 by mant-GTP binding kinetics real-time assay
[13] = target: Ras-related C3 botulinum toxin substrate 1 (Mus musculus) (UniProt P63001); assay: Inhibition of Rac1 in mouse NIH/3T3 cells assessed as reduction in Rac activator-stimulated cell migration incubated for 24 hrs; assay type: cell-based
[14] = target: Ras-related C3 botulinum toxin substrate 1 (Mus musculus) (UniProt P63001); assay: Inhibition of Rac1 in mouse airways smooth muscle cells assessed as reduction in methacholine-induced maximal contraction pre-incubated for 1 hrs before methacholine addition
[15] = target: Cell division control protein 42 homolog (Mus musculus) (UniProt P60766); assay: Binding affinity to mouse Cdc42 by SPR assay
Chain of Cell division control protein 42 homolog (Mus musculus) (P60766 whole entry, looked up): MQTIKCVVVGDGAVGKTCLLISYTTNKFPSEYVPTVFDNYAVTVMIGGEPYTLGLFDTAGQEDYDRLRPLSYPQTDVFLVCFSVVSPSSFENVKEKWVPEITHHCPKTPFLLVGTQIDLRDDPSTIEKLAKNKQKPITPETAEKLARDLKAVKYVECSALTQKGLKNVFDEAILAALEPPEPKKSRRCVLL

[16] = target: Transforming protein RhoA (Mus musculus) (UniProt Q9QUI0); assay: Binding affinity to mouse RhoA by SPR assay

With `COc1ccccc1NS(=O)(=O)c1ccc(N)cc1` the IC50 [1] was 1 nM.

With `COc1cccc(NS(=O)(=O)c2ccc(N)cc2)c1` the IC50 [1] was 1 nM.

`COc1ccccc1NS(=O)(=O)c1ccc(NC(=O)CCSc2ccc(C)cc2)cc1` showed an IC50 [1] of 1 nM.

With `COc1ccc(OC)c(NS(=O)(=O)c2ccc(NC(=O)CCSc3ccc(C)cc3)cc2)c1` the IC50 [1] was 1 nM, the inhibition [2] was “inactive” and the inhibition [3] was “inactive”. For the same compound, the Activity [4] was “Active”, the inhibition [5] was “Active” and the inhibition [6] was “Dose-dependent effect”. The Activity (Mus musculus) was “Active”, the inhibition [7] was “inactive” and the inhibition [8] was “Active”. For the same compound, the Activity [9] was “Active”, the inhibition [10] was “Active” and the inhibition [11] was “inactive”. The inhibition [12] was “Active”, the inhibition [13] was “Active” and the inhibition [14] was “Active”. The Activity [15] was “inactive” and the Activity [16] was “inactive”.

`COc1ccccc1NS(=O)(=O)c1ccc(NC(=O)CSc2ccc(C)cc2)cc1` showed an IC50 [1] of 1 nM.

In the case of `C=CC(=O)Nc1ccc(S(=O)(=O)Nc2cc(OC)ccc2OC)cc1`, the IC50 [1] is reported as 0.1 nM.

In the case of `COc1ccccc1NS(=O)(=O)c1ccc([N+](=O)[O-])cc1`, the IC50 [1] is reported as 1 nM.

`COc1ccc(NS(=O)(=O)c2ccc(NC(=O)CCSc3ccc(C)cc3)cc2)c(OC)c1` was tested, and the IC50 [1] was 30 nM.

In the case of `COc1ccc(OC)c(NS(=O)(=O)c2ccc(NC(=O)CCOc3ccc(C)cc3)cc2)c1`, the IC50 [1] is reported as 1 nM.

`CCN(CC)CCCC(C)Nc1nc(C)cc(Nc2ccc3nc(C)cc(N)c3c2)n1` (centres undefined) was tested, and the inhibition [5] was “Active”, the inhibition [6] was “Dose-dependent effect” and the inhibition [10] was “Active”. For the same compound, the inhibition [13] was “Active”.
